Assay results taken from US6335339B1, “Triazine antiviral compounds” (Scriptgen Pharmaceuticals, Inc., priority 1998, dated 2002).
Read-outs that look alike come from different tables or passages of the source.

Legend:
[1] = test system: 2.2.15 cells; experiment: neutral red dye uptake cytotoxicity; format: cell-based; conditions: 9 days treatment, read-out: 50% Cell Death CC50
Outline: (§1)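 Confluent 2.2.15 cultures, same conditions as antiviral assay, treated daily for 9 days with 4 concentrations (3.3-fold dilutions), triplicate wells. 24 hours after the final dose, cells stained 30 minutes with 0.01% neutral red, dye extracted and A510 read; values as % of untreated cultures, CC50 as 50% cell death.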

[2] = test system: HBV; experiment: antiviral assay in 2.2.15 cells producing HBV (virion DNA dot blot); format: cell-based, Hepatitis B virus
Outline: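 2.2.15 cells (integrated HBV genome) were treated daily with compound at 4 concentrations for 9 days; medium harvested 24 h later and virion DNA quantified by dot-blot hybridization. EC50/EC90 are µM concentrations reducing extracellular virus by 50%/90%; cytotoxicity by neutral red uptake, CC50 as 50% cell death.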

[3] = neutral red dye uptake cytotoxicity; format: cell-based; conditions: human, 2.2.15 cells (confluent cultures), 9 days treatment, read-out: 50% Cell Death CC50
Outline: as §1

[4] = extra-cellular virus reduced by 50%, 2.2.15 cells, 9 days treatment, read-out: Antiviral EC50

C(=NNc1nc(Nc2ccccc2)nc(N2CCCCC2)n1)c1ccccc1 [Compound 3]
CC50 [1]: > 100 µM
EC50 [2, 4]: 4.8 µM

Cc1[nH]c2ccccc2c1C=NNc1nc(Nc2ccccc2)nc(N2CCOCC2)n1 [Compound 4]
CC50 [1]: 3.7 µM
EC50 [2, 4]: 3.4 µM

FC(F)(F)c1cccc(Nc2nc(Nc3cccc(Br)c3)nc(N3CCOCC3)n2)c1 [Compound 38]
CC50 [1]: 125 µM
EC50 [2, 4]: 0.592 µM

CCCCN(CCCC)c1nc(NN=Cc2c[nH]c3ccccc23)nc(Nc2ccc([N+](=O)[O-])cc2)n1 [Compound 39]
CC50 [1]: 5.3 µM
EC50 [2, 4]: 1 µM

Cc1ccc(Nc2nc(NN=Cc3ccc(Cl)c(Cl)c3)nc(Nc3ccccc3)n2)c(C)c1 [Compound 40]
CC50 [1]: 136 µM
EC50 [2, 4]: 30 µM

O=[N+]([O-])c1ccc(Nc2nc(N/N=C/c3cccc(Cl)c3)nc(N3CCCCC3)n2)cc1 [Compound 41]
CC50 [1]: > 300 µM
EC50 [2, 4]: 36 µM

Cc1ccc(Nc2nc(NN=Cc3ccc(Cl)cc3)nc(Nc3ccccc3)n2)c(C)c1 [Compound 42]
CC50 [1]: 237 µM
EC50 [2, 4]: 6.1 µM

Brc1cc2c(cc1C=NNc1nc(NCc3ccccc3)nc(Nc3ccccc3)n1)OCO2 [Compound 43]
CC50 [1]: 87 µM
EC50 [2, 4]: 0.841 µM

COc1ccc(C=NNc2nc(Nc3ccc([N+](=O)[O-])cc3)nc(N3CCCCC3)n2)cc1 [Compound 44]
CC50 [1]: 285 µM
EC50 [2, 4]: 4.8 µM

O=[N+]([O-])c1ccc(C=NNc2nc(Nc3ccccc3)nc(NC3CCCCC3)n2)cc1 [Compound 46]
CC50 [1]: > 100 µM
EC50 [2, 4]: > 100 µM

Cc1ccc(Nc2nc(NN=Cc3cccc(Br)c3)nc(Nc3ccccc3)n2)c(C)c1 [Compound 49]
CC50 [1]: 140 µM
EC50 [2, 4]: 1.2 µM

Cc1[nH]c2ccccc2c1C=NNc1nc(NCc2ccccc2)nc(Nc2ccccc2)n1 [Compound 50]
CC50 [1]: 30 µM
EC50 [2, 4]: 29 µM

Cc1ccc(Nc2nc(NN=Cc3ccc4c(c3)OCO4)nc(Nc3ccccc3)n2)c(C)c1 [Compound 51]
CC50 [1]: 130 µM
EC50 [2, 4]: 15 µM

O=[N+]([O-])c1cc(C=NNc2nc(Nc3ccccc3)nc(N3CCOCC3)n2)ccc1Cl [Compound 52]
CC50 [1]: 11 µM
EC50 [2, 4]: 4.5 µM

Oc1ccc(Nc2nc(Nc3cccc(C(F)(F)F)c3)nc(N3CCOCC3)n2)cc1 [Compound 53]
CC50 [1]: 72 µM
EC50 [2, 4]: 1.2 µM

CC(C)c1ccc(C=NNc2nc(Nc3ccc([N+](=O)[O-])cc3)nc(N3CCCCCC3)n2)cc1 [Compound 56]
CC50 [1]: 63 µM
EC50 [2, 4]: > 100 µM

COc1ccc(C=NNc2nc(Nc3ccccc3)nc(Nc3ccc(C)cc3C)n2)c(OC)c1 [Compound 61]
CC50 [1]: 1.3 µM
EC50 [2, 4]: 3.7 µM

CC(C)c1ccc(C=NNc2nc(Nc3ccc([N+](=O)[O-])cc3)nc(N3CCCCC3)n2)cc1 [Compound 62]
CC50 [1]: > 100 µM
EC50 [2, 4]: > 100 µM

CCN(CC)c1nc(N/N=C/c2ccc([N+](=O)[O-])cc2)nc(Nc2cc(C)ccc2C)n1 [Compound 63]
CC50 [1]: > 100 µM
EC50 [2, 4]: > 100 µM

CNc1nc(NN=Cc2ccccc2[N+](=O)[O-])nc(Nc2ccccc2)n1 [Compound 65]
CC50 [1]: 17 µM
EC50 [2, 4]: > 100 µM

CC(C)(C)Nc1nc(NCc2ccccc2)nc(NN=Cc2ccc3c(c2)OCO3)n1 [Compound 67]
CC50 [1]: > 100 µM
EC50 [2, 4]: > 100 µM

CCN(CC)c1nc(NN=Cc2ccc(F)cc2)nc(Nc2ccc([N+](=O)[O-])cc2)n1 [Compound 68]
CC50 [1]: > 300 µM
EC50 [2, 4]: > 100 µM

CCCCN(CCCC)c1nc(NN=C(C)c2ccccc2)nc(Nc2ccc([N+](=O)[O-])cc2)n1 [Compound 74]
CC50 [1]: > 100 µM
EC50 [2, 4]: > 100 µM

CCN(CC)c1nc(NN=Cc2cc([N+](=O)[O-])ccc2OC)nc(Nc2cc(C)ccc2C)n1 [Compound 85]
CC50 [1]: 209 µM
EC50 [2, 4]: > 100 µM

Cc1[nH]c2ccccc2c1C=NNc1nc(Nc2ccccc2)nc(N2CCCCC2)n1 [Compound 88]
CC50 [1]: > 100 µM
EC50 [2, 4]: 4.8 µM

C(=Cc1ccccc1)C=NNc1nc(NCc2ccccc2)nc(Nc2ccccc2)n1 [Compound 91]
CC50 [1]: > 300 µM
EC50 [2, 4]: > 100 µM

CC(C)(C)Nc1nc(NCc2ccccc2)nc(N/N=C/c2ccccc2F)n1 [Compound 93, 2-fluorobenzaldehyde N-[4-(benzylamino)-6-(tert-butylamino)-1,3,5-triazin-2-yl]hydrazone]
CC50 at 9 days [3]: 54 µM
EC50 ([2]; Hepatitis B virus, 216 h, read-out: Antiviral EC50 (μM)): 0.503 µM
EC50 ([2]; Hepatitis B virus, 216 h, extra-cellular virus reduced by 50%, 2.2.15 cells, 9 days treatment, read-out: Antiviral EC50): 0.006 µM

COc1ccccc1C=NNc1nc(Nc2ccc([N+](=O)[O-])cc2)nc(Nc2ccc(C)c(C)c2)n1 [Compound 94]
CC50 [1]: > 300 µM
EC50 [2, 4]: > 100 µM
